Reference: paper PMC8421423, “Cellular model system to dissect the isoform-selectivity of Akt inhibitors” (Nature Communications, 2021)
“And” between values parts separate entries of the source, which are not always exact repeats. Equal values may be shown once. Read-outs that look alike come from different tables or passages of the source.

Tests used:
Ba/F3^myr-Akt3 cells = assay: CellTiter-Glo cell viability assay; details: for Log ratio EC50 [Akt] / EC50 [Akt], Akt3 / Akt2: cell viability assay Ba/F3 myr-Akt cells, log units
Ba/F3^myr-Akt2 cells = assay: CellTiter-Glo cell viability assay
Akt2 [1] = target: T1, Akt2 (Homo sapiens, UniProt P31751); assay: PhosphoSens continuous fluorometric kinetic enzyme assay
T1 sequence (P31751 whole entry): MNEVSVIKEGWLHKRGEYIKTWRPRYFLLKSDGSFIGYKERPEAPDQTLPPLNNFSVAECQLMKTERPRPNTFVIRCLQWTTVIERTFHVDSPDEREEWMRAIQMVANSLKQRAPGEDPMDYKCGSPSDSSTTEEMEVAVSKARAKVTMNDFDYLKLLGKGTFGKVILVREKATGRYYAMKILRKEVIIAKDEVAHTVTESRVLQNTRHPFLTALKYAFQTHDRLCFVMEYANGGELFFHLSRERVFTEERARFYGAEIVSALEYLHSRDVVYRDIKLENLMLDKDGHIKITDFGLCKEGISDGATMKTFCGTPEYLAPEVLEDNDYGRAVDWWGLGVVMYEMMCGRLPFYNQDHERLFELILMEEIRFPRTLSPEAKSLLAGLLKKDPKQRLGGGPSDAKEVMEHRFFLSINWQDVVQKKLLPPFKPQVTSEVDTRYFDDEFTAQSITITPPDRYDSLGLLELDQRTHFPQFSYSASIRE
Protocol: By addition of either 8 nM Akt1, 2 nM Akt2, or 5 nM Akt3 (final concentrations) the reactions were initiated. […] Afterwards the kobs-values were plotted versus the inhibitor concentrations [I] and then fit to the following hyperbolic Eq.

Ba/F3^myr-Akt1 cells = assay: CellTiter-Glo cell viability assay; details: for Log ratio EC50 [Akt] / EC50 [Akt], Akt1 / Akt2: cell viability assay Ba/F3 myr-Akt cells, log units
Akt1 = Akt1 (Homo sapiens, UniProt P31749); assay: STK HTRF KinEASE activity-based assay (IC50); details: for Log ratio IC50 [Akt] / IC50 [Akt], Akt1 / Akt2: biochemical activity based assay, log units
Akt1, sequence (P31749 whole entry): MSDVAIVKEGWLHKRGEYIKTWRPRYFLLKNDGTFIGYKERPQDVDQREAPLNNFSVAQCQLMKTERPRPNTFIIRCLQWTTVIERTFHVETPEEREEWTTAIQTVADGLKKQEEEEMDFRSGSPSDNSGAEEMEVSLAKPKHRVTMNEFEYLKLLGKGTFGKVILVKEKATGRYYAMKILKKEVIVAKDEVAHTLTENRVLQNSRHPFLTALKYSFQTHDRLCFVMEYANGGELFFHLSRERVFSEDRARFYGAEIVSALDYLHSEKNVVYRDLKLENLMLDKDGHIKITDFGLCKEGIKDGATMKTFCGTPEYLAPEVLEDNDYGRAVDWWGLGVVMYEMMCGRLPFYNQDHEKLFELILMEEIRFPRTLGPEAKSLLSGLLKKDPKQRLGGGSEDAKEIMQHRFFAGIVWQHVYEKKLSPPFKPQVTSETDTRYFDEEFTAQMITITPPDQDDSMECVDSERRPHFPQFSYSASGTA

Akt3 = Akt3 (Homo sapiens, UniProt Q9Y243); assay: STK HTRF KinEASE activity-based assay (IC50)
Akt3, sequence (Q9Y243 whole entry): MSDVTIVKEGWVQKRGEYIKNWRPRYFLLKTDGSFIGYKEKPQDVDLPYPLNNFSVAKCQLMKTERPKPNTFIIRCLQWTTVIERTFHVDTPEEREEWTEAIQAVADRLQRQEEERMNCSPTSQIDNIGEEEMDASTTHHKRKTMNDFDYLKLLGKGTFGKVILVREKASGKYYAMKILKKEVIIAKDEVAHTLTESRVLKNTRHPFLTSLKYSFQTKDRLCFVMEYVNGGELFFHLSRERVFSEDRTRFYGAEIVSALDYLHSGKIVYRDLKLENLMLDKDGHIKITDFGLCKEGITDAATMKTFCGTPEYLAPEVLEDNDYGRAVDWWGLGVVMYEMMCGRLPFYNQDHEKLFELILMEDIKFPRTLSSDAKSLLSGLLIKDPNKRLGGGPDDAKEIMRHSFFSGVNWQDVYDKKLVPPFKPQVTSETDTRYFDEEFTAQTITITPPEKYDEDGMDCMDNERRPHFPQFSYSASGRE

Akt2 [2] = target: T1, Akt2; assay: STK HTRF KinEASE activity-based assay (IC50)
parental Ba/F3 cells = assay: CellTiter-Glo cell viability assay; type: cell-based, murine
[3] = Mus musculus, read-out: CTG BaF3myr-Akt3, Mean, mean of replicates
[4] = Mus musculus, read-out: CTG BaF3myr-Akt3, individual determinations, single replicates
[5] = read-out: CTG BaF3myr-Akt3, individual determinations, single replicates
[6] = Mus musculus, read-out: CTG BaF3myr-Akt2, individual determinations, single replicates
[7] = read-out: CTG BaF3myr-Akt2, individual determinations, single replicates
[8] = Mus musculus, read-out: CTG BaF3myr-Akt1, individual determinations, single replicates
[9] = read-out: CTG BaF3myr-Akt1, individual determinations, single replicates
[10] = HTRF IC50 Akt1, Mean, mean of replicates
[11] = HTRF IC50 Akt1, individual determinations, single replicates
[12] = IC50 Akt1, HTRF, ATP at KM, 1 h preincubation
[13] = HTRF IC50 Akt3, Mean, mean of replicates
[14] = HTRF IC50 Akt3, individual determinations, single replicates
[15] = IC50 Akt3, HTRF, ATP at KM, 1 h preincubation
[16] = HTRF IC50 Akt2, Mean, mean of replicates
[17] = HTRF IC50 Akt2, individual determinations, single replicates
[18] = IC50 Akt2, HTRF, ATP at KM, 1 h preincubation
[19] = Mus musculus, BaF3, parental cells, single replicates, read-out: CTG BaF3, individual determinations
[20] = parental cells, single replicates, read-out: CTG BaF3, individual determinations

SMILES | EC50 (Ba/F3^myr-Akt3 cells; [3]) | EC50 (Ba/F3^myr-Akt3 cells; [4]) | Log ratio EC50 [Akt] / EC50 [Akt], Akt3 / Akt2 (Ba/F3^myr-Akt3 cells) | EC50 (Ba/F3^myr-Akt3 cells; [5]) | EC50 (Ba/F3^myr-Akt2 cells; [6]) | EC50 (Ba/F3^myr-Akt2 cells; [7]) | EC50 (Ba/F3^myr-Akt1 cells; [8]) | Log ratio EC50 [Akt] / EC50 [Akt], Akt1 / Akt2 (Ba/F3^myr-Akt1 cells) | EC50 (Ba/F3^myr-Akt1 cells; [9]) | IC50 (Akt1; [10]) | IC50 (Akt1; [11]) | IC50 (Akt1; [12]) | Log ratio IC50 [Akt] / IC50 [Akt], Akt1 / Akt2 (Akt1) | IC50 (Akt3; [13]) | IC50 (Akt3; [14]) | IC50 (Akt3; [15]) | IC50 (Akt2 [2]; [16]) | IC50 (Akt2 [2]; [17]) | IC50 (Akt2 [2]; [18]) | EC50 (parental Ba/F3 cells; [20]) | other results
C=CC(=O)Nc1ccc2[nH]c(=O)n(C3CCN(Cc4ccc(-c5ncc(C(=O)NCC(C)C)cc5-c5ccccc5)cc4)CC3)c2c1 [compound 10] | 24.3 µM | 25.3 µM | -0.48 | 25.7 µM and 21.8 µM | 7.98 µM | 5.41 µM and 9.28 µM | > 30 µM | 0.52 | 28.8 µM and 21.1 µM | 1.72 µM | 1.89 µM and 1.69 µM and 1.56 µM | 1.72 ± 0.166 µM | 1.26 | 1.56 µM | 1.65 µM and 1.47 µM and 1.57 µM | 1.56 ± 0.075 µM | 0.0937 µM | 0.0924 µM and 0.0898 µM and 0.0989 µM | 0.094 ± 0.004 µM | 19.4 µM and > 30 µM | EC50 (Ba/F3^myr-Akt2 cells; Mus musculus, read-out: CTG BaF3myr-Akt2, Mean, mean of replicates): 7.99 µM; Ki (Akt2 [1]; Ki Akt2): 0.004 ± 0.001 µM; Ki (Akt2 [1]; Ki Akt2, Mean, mean of replicates): 0.00418 µM; Ki (Akt2 [1]; Ki Akt2, individual determinations, single replicates): 0.0051 µM and 0.0041 µM and 0.0033 µM; kinact/KI (Akt2 [1]; read-out: kinact /Ki Akt2): 25000 ± 5000 M⁻¹ s⁻¹; kinact/KI (Akt2 [1]; read-out: kinact /Ki Akt2, individual determinations, single replicates): 27000 M⁻¹ s⁻¹; kinact (Akt2 [1]; read-out: kinact Akt2): 0.0001 s⁻¹; kinact (Akt2 [1]; read-out: kinact Akt2, Mean, mean of replicates): 0.0001 s⁻¹; kinact (Akt2 [1]; read-out: kinact Akt2, individual determinations, single replicates): 0.000133 s⁻¹; kinact Akt2, individual determinations (Akt2 [1]; single replicates): 0.00457 min⁻¹ and 0.006 min⁻¹; EC50 (parental Ba/F3 cells; [19]): 15.3 µM
C=CC(=O)Nc1ccc2[nH]c(=O)n(C3CCN(Cc4ccc(-c5ncc(Cc6cccc(O)c6)cc5-c5ccccc5)cc4)CC3)c2c1 [compound 16] | > 30 µM | > 30 µM | -0.07 | > 30 µM | > 30 µM | 16.5 µM and > 30 µM | > 30 µM | 0.07 | > 30 µM | 9.48 µM | 10.2 µM and 9 µM and 9.2 µM | 9.48 ± 0.665 µM | 1.14 | 5.34 µM | 4.32 µM and 3.56 µM and 8.14 µM | 5.34 ± 2.01 µM | 0.682 µM | 0.766 µM and 1.08 µM and 0.599 µM | 0.682 ± 0.083 µM | > 30 µM | EC50 BaF3myr-Akt3 (Ba/F3^myr-Akt3 cells; CTG): generally inactive; EC50 (Ba/F3^myr-Akt3 cells; Mus musculus, read-out: EC50 BaF3myr-Akt3, CTG): > 30 µM; EC50 BaF3myr-Akt1 (Ba/F3^myr-Akt1 cells; CTG): generally inactive; EC50 (Ba/F3^myr-Akt1 cells; Mus musculus, read-out: CTG BaF3myr-Akt1, Mean, mean of replicates): > 30 µM; EC50 (Ba/F3^myr-Akt1 cells; Mus musculus, read-out: EC50 BaF3myr-Akt1, CTG): > 30 µM; EC50 (parental Ba/F3 cells; Mus musculus, BaF3, CTG, parental BaF3 cell line, read-out: EC50 BaF3): > 30 µM; EC50 (parental Ba/F3 cells; Mus musculus, BaF3, parental cells, mean of replicates, read-out: CTG BaF3, Mean): > 30 µM; EC50 (parental Ba/F3 cells; [19]): > 30 µM
C=CC(=O)Nc1ccc2[nH]c(=O)n(C3CCN(Cc4ccc(-c5ncc(C(=O)O)cc5-c5ccccc5)cc4)CC3)c2c1 [compound 4] | – | – | 0 | > 30 µM | – | > 30 µM | – | 0 | > 30 µM | – | – | – | -0.75 | – | – | – | – | – | – | > 30 µM | EC50 BaF3myr-Akt3 (Ba/F3^myr-Akt3 cells; CTG): generally inactive; EC50 (Ba/F3^myr-Akt3 cells; read-out: CTG BaF3myr-Akt3, Mean, mean of replicates): > 30 µM; EC50 (Ba/F3^myr-Akt3 cells; read-out: EC50 BaF3myr-Akt3, CTG): > 30 µM; EC50 BaF3myr-Akt2 (Ba/F3^myr-Akt2 cells; CTG): generally inactive; EC50 (Ba/F3^myr-Akt2 cells; read-out: CTG BaF3myr-Akt2, Mean, mean of replicates): > 30 µM; EC50 (Ba/F3^myr-Akt2 cells; read-out: EC50 BaF3myr-Akt2, CTG): > 30 µM; EC50 BaF3myr-Akt1 (Ba/F3^myr-Akt1 cells; CTG): generally inactive; EC50 (Ba/F3^myr-Akt1 cells; read-out: CTG BaF3myr-Akt1, Mean, mean of replicates): > 30 µM; EC50 (Ba/F3^myr-Akt1 cells; read-out: EC50 BaF3myr-Akt1, CTG): > 30 µM; IC50 (Akt1; read-out: HTRF IC50 Akt1, Mean, mean of replicates): 0.0443 µM; IC50 (Akt1; read-out: HTRF IC50 Akt1, individual determinations, single replicates): 0.0455 µM and 0.0221 µM and 0.0653 µM; IC50 (Akt1; read-out: IC50 Akt1, HTRF, ATP at KM, 1 h preincubation): 0.044 ± 0.018 µM; IC50 (Akt3; read-out: HTRF IC50 Akt3, individual determinations, single replicates): 5.7 µM and 7.19 µM and 8.39 µM; IC50 (Akt3; read-out: IC50 Akt3, HTRF, ATP at KM, 1 h preincubation): 6.45 ± 0.742 µM; IC50 (Akt2 [2]; read-out: HTRF IC50 Akt2, Mean, mean of replicates): 0.248 µM; IC50 (Akt2 [2]; read-out: HTRF IC50 Akt2, individual determinations, single replicates): 0.189 µM and 0.309 µM and 0.245 µM; IC50 (Akt2 [2]; read-out: IC50 Akt2, HTRF, ATP at KM, 1 h preincubation): 0.248 ± 0.049 µM; EC50 (parental Ba/F3 cells; CTG, parental BaF3 cell line, read-out: EC50 BaF3): > 30 µM; EC50 (parental Ba/F3 cells; parental cells, mean of replicates, read-out: CTG BaF3, Mean): > 30 µM
